{"source": "ChEMBL document CHEMBL1131974", "about": "“Asymmetric synthesis and antitumor activity of cycloalkanin” (1999)", "key": {"[1]": {"tested_on": "A549", "assay": "In vitro cytotoxic activity against A549 tumor cell line by SRB assay at 72 hour at a concentration 10E-5 (M/L)", "format": "functional, Homo sapiens"}, "[2]": {"tested_on": "P388", "assay": "In vitro cytotoxic activity against P388 tumor cell line by MTT assay at 48 hour at a concentration 10E-4 (M/L)", "format": "functional, Mus musculus"}, "[3]": {"tested_on": "A549", "assay": "In vitro cytotoxic activity against A549 tumor cell line by SRB assay at 72 hour at a concentration 10E-7 (M/L)", "format": "functional, Homo sapiens"}, "[4]": {"tested_on": "P388", "assay": "In vitro cytotoxic activity against P388 tumor cell line by MTT assay at 48 hour at a concentration 10E-7 (M/L)", "format": "functional, Mus musculus"}, "[5]": {"tested_on": "A549", "assay": "In vitro cytotoxic activity against A549 tumor cell line by SRB assay at 72 hour at a concentration 10E-8 (M/L)", "format": "functional, Homo sapiens"}, "[6]": {"tested_on": "P388", "assay": "In vitro cytotoxic activity against P388 tumor cell line by MTT assay at 48 hour at a concentration 10E-5 (M/L)", "format": "functional, Mus musculus"}, "[7]": {"tested_on": "A549", "assay": "In vitro cytotoxic activity against A549 tumor cell line by SRB assay at 72 hour at a concentration 10E-6 (M/L)", "format": "functional, Homo sapiens"}, "[8]": {"tested_on": "A549", "assay": "In vitro cytotoxic activity against A549 tumor cell line by SRB assay at 72 hour at a concentration 10E-4 (M/L)", "format": "functional, Homo sapiens"}, "[9]": {"tested_on": "P388", "assay": "In vitro cytotoxic activity against P388 tumor cell line by MTT assay at 48 hour at a concentration 10E-8 (M/L)", "format": "functional, Mus musculus"}, "[10]": {"tested_on": "P388", "assay": "In vitro cytotoxic activity against P388 tumor cell line by MTT assay at 48 hour at a concentration 10E-6 (M/L)", "format": "functional, Mus musculus"}}}
{"smiles": "CC1(C)CC[C@H](C2=CC(=O)c3c(O)ccc(O)c3C2=O)O1", "values": [{"measurement": "Inhibition", "setting": "[1]", "result": 93.5, "unit": "%"}, {"measurement": "Inhibition", "setting": "[2]", "result": 98.9, "unit": "%"}, {"measurement": "Inhibition", "setting": "[3]", "result": 14, "unit": "%"}, {"measurement": "Inhibition", "setting": "[4]", "result": 98.9, "unit": "%"}, {"measurement": "Inhibition", "setting": "[5]", "result": 0, "unit": "%"}, {"measurement": "Inhibition", "setting": "[6]", "result": 98.9, "unit": "%"}, {"measurement": "Inhibition", "setting": "[7]", "result": 24.7, "unit": "%"}, {"measurement": "Inhibition", "setting": "[8]", "result": 92.5, "unit": "%"}, {"measurement": "Inhibition", "setting": "[9]", "result": 98.9, "unit": "%"}, {"measurement": "Inhibition", "setting": "[10]", "result": 98.9, "unit": "%"}]}
